# Data from patent publication US10954269B2, “Anti-inflammatory tripeptides” (Dr. August Wolff Gmbh & Co. KG Arzneimittel, priority 2013, dated 2021).
# [ ]: non-standard residue; d: D form. Aib = CC(C)(N)C(=O)O
# System: primary murine T-cells
# Assay: Cytokine secretion on protein level in activated primary murine T-cells (13-plex FACS / Luminex, supernatant)
# Type: cell-based, C57BL/6 mice
# Method in brief: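 T-cells from secondary lymphatic organs of naïve C57BL/6 mice, stimulated with PMA/Ionomycin or IFN-γ; supernatant cytokines measured by 13-plex FACS 48 h and 72 h after stimulation. In another run, PMA/Ionomycin-stimulated cells received compounds at 10^−7, 10^−9 and 10^−11 M, with IFN-γ, IL-17 and IL-10 measured by Luminex.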
# [1] = primary murine T-cells stimulated with IFN-γ, 10^−9M
# [2] = primary murine T-cells stimulated with IFN-γ, substance 10^−9M
# [3] = primary murine T-cells stimulated with PBS, 10^−9M
# [4] = primary murine T-cells stimulated with PBS, substance 10^−9M
# [5] = primary murine T-cells stimulated with PMA/Ionomycin, 10^−9M
# [6] = primary murine T-cells stimulated with PMA/Ionomycin, 10^−9M, 1:10 dilution of the supernatants
# [7] = primary murine T-cells stimulated with PMA/Ionomycin, substance 10^−9M
substance,measurement,setting,value
"alpha-melanocyte-stimulating hormone [α-MSH, reference compound]",IL-1 cytokine concentration,[1],14.89 pg/mL
same,IL-2 cytokine concentration,[1],0 pg/mL
same,IL-4 cytokine concentration,[1],0 pg/mL
same,IL-5 cytokine concentration,[1],0 pg/mL
same,IL-6 cytokine concentration,[1],0 pg/mL
same,IL-10 cytokine concentration,[1],0 pg/mL
same,IL-13 cytokine concentration,[1],0 pg/mL
same,IL-17 cytokine concentration,[1],0 pg/mL
same,IL-21 cytokine concentration,[1],0 pg/mL
same,IL-22 cytokine concentration,[1],0 pg/mL
same,IL-27 cytokine concentration,[1],0 pg/mL
same,TNF-α cytokine concentration,[1],0 pg/mL
same,IL-1 cytokine concentration,[2],88.22 pg/mL
same,IL-2 cytokine concentration,[2],96.1 pg/mL
same,IL-4 cytokine concentration,[2],20.56 pg/mL
same,IL-5 cytokine concentration,[2],220.39 pg/mL
same,IL-6 cytokine concentration,[2],133.9 pg/mL
same,IL-10 cytokine concentration,[2],1117.07 pg/mL
same,IL-13 cytokine concentration,[2],0 pg/mL
same,IL-17 cytokine concentration,[2],55.11 pg/mL
same,IL-21 cytokine concentration,[2],0 pg/mL
same,IL-22 cytokine concentration,[2],50.6 pg/mL
same,IL-27 cytokine concentration,[2],104.04 pg/mL
same,TNF-α cytokine concentration,[2],36.8 pg/mL
same,IFN-γ cytokine concentration,[3],0 pg/mL
same,IL-1 cytokine concentration,[3],0 pg/mL
same,IL-2 cytokine concentration,[3],0 pg/mL
same,IL-4 cytokine concentration,[3],0 pg/mL
same,IL-5 cytokine concentration,[3],0 pg/mL
same,IL-6 cytokine concentration,[3],16.44 pg/mL
same,IL-10 cytokine concentration,[3],55.47 pg/mL
same,IL-13 cytokine concentration,[3],0 pg/mL
same,IL-17 cytokine concentration,[3],0 pg/mL
same,IL-21 cytokine concentration,[3],0 pg/mL
same,IL-22 cytokine concentration,[3],0 pg/mL
same,IL-27 cytokine concentration,[3],0 pg/mL
same,TNF-α cytokine concentration,[3],0 pg/mL
same,IFN-γ cytokine concentration,[4],0 pg/mL
same,IL-1 cytokine concentration,[4],58.5 pg/mL
same,IL-2 cytokine concentration,[4],105.75 pg/mL
same,IL-4 cytokine concentration,[4],62.93 pg/mL
same,IL-5 cytokine concentration,[4],281.14 pg/mL
same,IL-6 cytokine concentration,[4],96.88 pg/mL
same,IL-10 cytokine concentration,[4],1157.87 pg/mL
same,IL-13 cytokine concentration,[4],0 pg/mL
same,IL-17 cytokine concentration,[4],0 pg/mL
same,IL-21 cytokine concentration,[4],0 pg/mL
same,IL-22 cytokine concentration,[4],72.14 pg/mL
same,IL-27 cytokine concentration,[4],77.41 pg/mL
same,TNF-α cytokine concentration,[4],106.1 pg/mL
same,IL-1 cytokine concentration,[5],28.92 pg/mL
same,IL-4 cytokine concentration,[5],0 pg/mL
same,IL-5 cytokine concentration,[5],262.76 pg/mL
same,IL-6 cytokine concentration,[5],114.47 pg/mL
same,IL-10 cytokine concentration,[5],276.08 pg/mL
same,IL-13 cytokine concentration,[5],3966.69 pg/mL
same,IL-17 cytokine concentration,[5],311.07 pg/mL
same,IL-21 cytokine concentration,[5],0 pg/mL
same,IL-22 cytokine concentration,[5],356.41 pg/mL
same,IL-27 cytokine concentration,[5],0 pg/mL
same,TNF-α cytokine concentration,[5],535.51 pg/mL
same,IFN-γ* cytokine concentration,[6],0 pg/mL
same,IL-2* cytokine concentration,[6],849.44 pg/mL
same,IFN-γ cytokine concentration,[7],1458.12 pg/mL
same,IL-1 cytokine concentration,[7],217.32 pg/mL
same,IL-2 cytokine concentration,[7],163.19 pg/mL
same,IL-4 cytokine concentration,[7],91.65 pg/mL
same,IL-5 cytokine concentration,[7],215.44 pg/mL
same,IL-6 cytokine concentration,[7],174.22 pg/mL
same,IL-10 cytokine concentration,[7],1250.21 pg/mL
same,IL-13 cytokine concentration,[7],0 pg/mL
same,IL-17 cytokine concentration,[7],29.47 pg/mL
same,IL-21 cytokine concentration,[7],0 pg/mL
same,IL-22 cytokine concentration,[7],143.37 pg/mL
same,IL-27 cytokine concentration,[7],104.52 pg/mL
same,TNF-α cytokine concentration,[7],77.76 pg/mL
H-Phe-Pro-[Aib]-OH [Example 13],IL-1 cytokine concentration,[2],82.68 pg/mL
same,IL-2 cytokine concentration,[2],237.05 pg/mL
same,IL-4 cytokine concentration,[2],0 pg/mL
same,IL-5 cytokine concentration,[2],342.32 pg/mL
same,IL-6 cytokine concentration,[2],220.06 pg/mL
same,IL-10 cytokine concentration,[2],968.94 pg/mL
same,IL-13 cytokine concentration,[2],0 pg/mL
same,IL-17 cytokine concentration,[2],26.88 pg/mL
same,IL-21 cytokine concentration,[2],0 pg/mL
same,IL-22 cytokine concentration,[2],334.1 pg/mL
same,IL-27 cytokine concentration,[2],151.6 pg/mL
same,TNF-α cytokine concentration,[2],52.48 pg/mL
same,IFN-γ cytokine concentration,[4],5058.59 pg/mL
same,IL-1 cytokine concentration,[4],64.4 pg/mL
same,IL-2 cytokine concentration,[4],173.84 pg/mL
same,IL-4 cytokine concentration,[4],25.55 pg/mL
same,IL-5 cytokine concentration,[4],401.21 pg/mL
same,IL-6 cytokine concentration,[4],168.6 pg/mL
same,IL-10 cytokine concentration,[4],829.52 pg/mL
same,IL-13 cytokine concentration,[4],0 pg/mL
same,IL-17 cytokine concentration,[4],0 pg/mL
same,IL-21 cytokine concentration,[4],0 pg/mL
same,IL-22 cytokine concentration,[4],0 pg/mL
same,IL-27 cytokine concentration,[4],302.6 pg/mL
same,TNF-α cytokine concentration,[4],62.22 pg/mL
same,IFN-γ cytokine concentration,[7],8109.91 pg/mL
same,IL-1 cytokine concentration,[7],329.99 pg/mL
same,IL-2 cytokine concentration,[7],260.49 pg/mL
same,IL-4 cytokine concentration,[7],135.41 pg/mL
same,IL-5 cytokine concentration,[7],452.71 pg/mL
same,IL-6 cytokine concentration,[7],404.54 pg/mL
same,IL-10 cytokine concentration,[7],1267.4 pg/mL
same,IL-13 cytokine concentration,[7],0 pg/mL
same,IL-17 cytokine concentration,[7],0 pg/mL
same,IL-21 cytokine concentration,[7],432.64 pg/mL
same,IL-22 cytokine concentration,[7],111.64 pg/mL
same,IL-27 cytokine concentration,[7],387.94 pg/mL
same,TNF-α cytokine concentration,[7],69.4 pg/mL
